According to US20220008553A1, “ANTI-ERBB2 ANTIBODY-DRUG CONJUGATE AND COMPOSITION THEREOF, PREPARATION METHOD THEREFOR, AND USE THEREOF” (SICHUAN KELUN-BIOTECH BIOPHARMACEUTICAL CO., LTD., priority 2015, published 2022):

Tests used:
JIMT-1 (HER2+) = settings: 1 h incubation, FACS
Experimental: (§1) The fluorescent intensity of cell surface binding was measured with FACS to determine the affinity of the drugs to the above cells.

BT-474 (HER2+++) = settings: 1 h incubation, FACS
Experimental: as §1

MDA-MB-468 (HER2−) = settings: 1 h incubation, FACS
Experimental: as §1

[1] = tested on: breast cancer cell line BT474; settings: mouse, in vivo
Experimental: (§2) The change of tumor volume and animal weight were measured for calculation of the efficacy (tumor-inhibitory efficacy) of the antibody-drug conjugates in the tumor-bearing mice.
(§3) After gently shaking, the mother solutions were sub-packed and stored at −80° C. Treatment solutions for use were obtained by dilution with normal saline, and a normal saline at the same concentration was used as solvent control.
(§4) The tumor-bearing mice (models obtained in 1.2) with tumor volume of 100-200 mm^3 were randomly assigned (the number of samples in each group was determined according to sample quantity), 7 mice per group. The dosage was 10 ml/kg. The route of administration was single intravenous injection in caudal vein. After administration, the tumor diameter was measured with vernier caliper twice a week for an observation period of 8 weeks, and the tumor volume was calculated according to the following equation: V=0.5 a^2×b, wherein a and b represent the […] of the tumor, respectively. Animal deaths were observed and recorded daily.
(§5) The tumor growth inhibition TGI (%) was calculated with the following equation for evaluating the antitumor efficacy of the antibody-drug conjugates: […]

[2] = tested on: ovarian cancer cell line SK-OV-3; settings: mouse, in vivo
Experimental: as §2, §3, §4, §5

[3] = tested on: human gastric cancer cell line NCI-N87; settings: mouse, in vivo
Experimental: as §2, §3, §4, §5

BT-474 cells = settings: 3 mg/kg, single injection via tail vein, 31st day after injection
Experimental: NOD/SCID mice were orthotopically inoculated with BT-474 cells to establish an orthotopic xenograft model of human-derived breast cancer. […] Each group has 10 mice, and the administration was a single injection via tail vein. Tumor volume was measured on the 31st day after the single injection (i.e., 39th day after inoculation of BT-474 cells), and TGI was calculated. The efficacy was evaluated based on TGI.
wherein VTe: Average tumor volume of treatment group at the end of observation • VTs: Average tumor volume of treatment group at the administration • VCe: Average tumor volume of control group at the end of observation • VCs: Average tumor volume of control group at the administration

BR0438 tumor mass = settings: 15 mg/kg, single injection via tail vein, 21st day after injection
Experimental: NOD/SCID mice were subcutaneously inoculated with BR0438 tumor mass to establish a subcutaneous xenograft model of human-derived breast cancer. The administration was conducted when the average tumor volume reached 173 mm^3. […] Each group has 8 mice, and the administration was a single injection via tail vein. Tumor volume was measured on the 21st day after the single injection, and TGI was calculated. The efficacy was evaluated based on TGI, and the tolerance was evaluated based on body weight changes and death of the mice. TGI was calculated as described above in (1).

Calu-3 cells = settings: 1 mg/kg, single injection via tail vein, 31st day after injection
Experimental: BALB/c Nude mice were subcutaneously inoculated with Calu-3 cells to establish a subcutaneous xenograft model of human-derived lung adenocarcinoma. […] Each group has 8 mice, and the administration was a single injection via tail vein. Tumor volume was measured on the 31st day after the single injection (36th day after inoculation of Calu-3 cells), and TGI was calculated. The efficacy was evaluated based on TGI, and the tolerance was evaluated based on body weight changes and death of the mice. TGI was calculated as described above in (1).

GA0006 tumor mass = settings: 15 mg/kg, single injection via tail vein, 21st day after injection
Experimental: BALB/c nude mice were subcutaneously inoculated with GA0006 tumor mass to establish a subcutaneous xenograft model of human-derived gastric cancer. The administration was conducted when the average tumor volume reached 141 mm^3. […] Each group has 8 mice, and the administration was a single injection via tail vein. Tumor volume was measured on the 21st day after the single injection, and TGI was calculated. The efficacy was evaluated based on TGI, and the tolerance was evaluated based on body weight changes and death of the mice. TGI was calculated as described above in (1).

JIMT-1 cells = settings: 3 mg/kg, single injection via tail vein, 31st day after injection
Experimental: NOD/SCID mice were subcutaneously inoculated with JIMT-1 cells to establish a subcutaneous xenograft model of human-derived breast cancer. […] Each group has 8 mice, and the administration was a single injection via tail vein. Tumor volume was measured on the 31st day after the single injection (i.e., 43rd day after inoculation of JIMT-1 cells), and TGI was calculated. The efficacy was evaluated based on TGI, and the tolerance was evaluated based on body weight changes and death of the mice. TGI was calculated as described above in (1).

T-DM1
affinity (EC50) (JIMT-1 (HER2+)): 0.5105 mg/L
affinity (EC50) (BT-474 (HER2+++)): 2.419 mg/L
affinity (EC50) (ng/ml) (MDA-MB-468 (HER2−)): No binding
TGI (%) [1]: 54.80%
TGI (%) [2]: −11.04%
final tumor volume (mm^3) [3]: 774.76 mm^3
TGI (%) (BT-474 cells): 43%
TGI (%) (BR0438 tumor mass): 3.65%
TGI (%) (Calu-3 cells): 64%
TGI (%) (GA0006 tumor mass): 86.97%
TGI (%) (JIMT-1 cells): 28%
